The record followed here is US12077534B2, “Aza-heterobicyclic inhibitors of MAT2A and methods of use for treating cancer” (Les Laboratoires Servier SAS, priority 2018, dated 2024).

Some results are limits rather than exact numbers.

In experiment [1] the test system is MAT2A activity (SAM) in HCT116 cells with deleted MTAP gene. The experiment in a line: Cellular assay of target engagement (SAM) by LC-MS/MS. Type of experiment: cell-based. Particulars: Homo sapiens, HCT-116; HCT116 MTAP −/−, 72 hrs; read-out: Cell 72 h SAM Inhibition (MTAP −/−). The procedure:
Measurement of MAT2A activity in cells was made by direct quantitation of the abundance of the product of its enzymatic activity, SAM. Cancer cells were treated with candidate MAT2A inhibitors for a suitable incubation period, and the cells were then lysed using a reagent which quenched any further enzyme activity. Soluble metabolites including SAM were collected and SAM itself was directly measured from the lysate using quantitative LC-MS/MS.
A typical assay was performed using an HCT116 human colon carcinoma cell line which was genetically engineered to delete the MTAP gene (commercially available from Horizon Discovery). This cell line was utilized because it was determined that loss of the MTAP gene predicts sensitivity to MAT2A inhibitors. Cells were plated in 96-well dishes at appropriate cell density. Following 24 hours, cells were then treated with the candidate MAT2A inhibitor. Prior to addition to cells, the compound was first serially diluted in 100% DMSO, typically as a 3-fold serial dilution starting at 500× top dose with 10 dose points including DMSO only control. Compound was then transferred to a working stock plate in cell culture media by adding 5 μL of compound in DMSO to 495 μL of cell culture media. This working stock was then added to cells via a further 5-fold dilution, by adding 25 μL of working stock to 100 μL of cells in culture media. Following compound addition, cells were incubated at 37° C./5% CO2 for 72 hrs.
To quantitate SAM levels following compound treatment, cells were gently washed once in ammonium carbonate buffer (75 mM at pH 7.4), placed on dry ice, and lysed with metabolite extraction buffer (80% cold methanol and 20% water (v/v) with acetic acid at 1M final concentration with 200 ng/mL deuterated d3-SAM as internal control). Following centrifugation at 4° C. at 3,200 rpm for 30 minutes, the supernatant was collected and stored at −80° C. until analysis by Liquid Chromatography with tandem Mass Spectrometry (LC-MS/MS). LC-MS/MS analysis was performed using an API6500 Mass Spectrometer (Sciex, Framingham, MA, USA) operating in positive ion spray mode and equipped with a Waters UPLC Acquity (Waters, Milford, MA, USA) BEH Amide column. Multiple Reaction Monitoring data was acquired for SAM and the d3-SAM standard, using a mass transition pair at m/z 399.2→250.1 and 402.2→250.1, respectively. In a typical LC-MS/MS analysis, the initial flow rate was 0.5 ml/min of 25% mobile phase A (acetonitrile and water at 5:95 (v/v) with 1% formic acid and 10 mM ammonium acetate) and 75% mobile phase B (acetonitrile and water at 95:5 (v/v) with 1% formic acid and 10 mM ammonium acetate), 0.2-0.5 minutes with 75%-35% mobile phase B, 25%-65% mobile phase A, at 0.5 min 65% mobile phase A and 35% mobile phase B, 1.0-1.1 minutes with 35%-75% mobile phase B, 65%-25% mobile phase A, at 1.1 min 25% mobile phase A and 75% mobile phase B with a total run time of 1.5 minutes.

In the next experiment the test system is HCT116 MTAP+/+. Put plainly: Inhibition of cellular proliferation (Cell Titer Glo), HCT116 MTAP+/+. The class given is cell-based. Particulars: Homo sapiens, HCT-116, 96 h, 4 days, read-out: 4 Day Relative Growth Inhibition (MTAP +/+). On the procedure:
(§1) Test compound impact on cancer cell growth was assessed by treating cancer cells with compound for 4 days and then measuring proliferation using an ATP-based cell proliferation readout (Cell Titer Glo, Promega Corporation).
(§2) In a typical assay an isogenic pair of HCT116 human colon carcinoma cell lines which vary only in MTAP deletion status (HCT116 MTAP+/+ and HCT116 MTAP−/−) were plated in 96-well dishes at appropriate cell density. Following 24 hours, cells were then treated with the candidate MAT2A inhibitor. Prior to addition to cells, the compound was first serially diluted in 100% DMSO, typically as a 3-fold serial dilution starting at 500× top dose with 10 dose points including DMSO only control. Compound was then transferred to a working stock plate in cell culture media by adding 5 μL of compound in DMSO to 495 μL of cell culture media. This working stock was then added to cells via a further 5-fold dilution, by adding 25 μL of working stock to 100 μL of cells in culture media. Following compound addition, cells were incubated at 37° C./5% CO2 for 4 days.
(§3) To measure inhibition of cellular proliferation, cells were allowed to equilibrate to room temperature for 30 minutes, and were then treated with 125 μL of Cell Titer Glo reagent. The plate was then covered with aluminum foil and shaken for 15 minutes to ensure complete mixing and full cell lysis. Luminescent signal was then measured using a plate-based luminometer Veritas version 1.9.2 using ATP standard curve to confirm assay reproducibility from run to run. This luminescence measure was converted to a proliferation index by subtracting from each data point the ATP luminescence signal measured from a bank (no cells) well and dividing by the ATP luminescence signal measured in 0.2% DMSO control well adjusted for signal in blank well. Compound activity was then represented as a percentage change in proliferation relative to a within-plate DMSO control against log 10 of compound concentration in molar (M) units.

Another experiment concerns HCT116 MTAP−/−. Put plainly: Inhibition of cellular proliferation (Cell Titer Glo), HCT116 MTAP-/-. The class given is cell-based. Particulars: Homo sapiens, HCT-116, 96 h, 4 days, read-out: 4 Day Relative Growth Inhibition (MTAP −/−). The procedure:
as §1, §2, §3

For a further experiment, the target named is T1, MAT2A homodimer (Homo sapiens, UniProt P31153).
T1 construct: inferred from Ni sepharose purification and imidazole elution; made in house; host or cells: SF9 insect cells, recombinant baculovirus (Bac to Bac, pFASTBAC1)
T1 sequence (P31153 whole entry): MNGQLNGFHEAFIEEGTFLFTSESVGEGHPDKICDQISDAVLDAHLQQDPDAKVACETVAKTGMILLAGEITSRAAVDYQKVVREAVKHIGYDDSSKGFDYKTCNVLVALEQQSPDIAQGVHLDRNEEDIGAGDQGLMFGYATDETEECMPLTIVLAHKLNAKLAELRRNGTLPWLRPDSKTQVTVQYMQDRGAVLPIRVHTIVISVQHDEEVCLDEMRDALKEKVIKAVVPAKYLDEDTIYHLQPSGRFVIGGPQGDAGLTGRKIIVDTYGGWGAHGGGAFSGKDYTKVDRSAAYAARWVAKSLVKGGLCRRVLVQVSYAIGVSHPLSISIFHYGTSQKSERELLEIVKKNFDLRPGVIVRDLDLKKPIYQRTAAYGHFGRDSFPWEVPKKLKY
Put plainly: MAT2A biochemical assay (phosphate release, PiColorLock Gold). The following applies: recombinant MAT2A homodimer, 60 min pre-incubation, 25° C.; read-out: Enzyme Inhibition. On the procedure:
Mat2A protein was expressed by recombinant baculovirus in SF9 infected cells using the Bac to Bac system cloned into the pFASTBAC1 vector (Invitrogen, Carlsbad, CA). Recombinant MAT2A was isolated from the cell lysate of 150 g of infected cells using HP Ni sepharose column chromatography. Recombinant MAT2A homodimer was eluted with 250 and 500 mM imidazole, and fractions containing MAT2A were identified by sodium dodecyl sulfate polyacrylamide gel electrophoresis and pooled.
For determination of the inhibitory potency of compounds against the MAT2A homodimer, protein was diluted to 4 μg/mL in assay buffer (50 mM Tris, pH 8.0, 50 mM KCl, 15 mM MgCl2, 0.3 mM EDTA, 0.005% [w/v] bovine serum albumin [BSA]). Test compound was prepared in 100% dimethyl sulfoxide (DMSO) at 50× the desired final concentration. A 1 μL volume of compound dilution was added to 40 μL of enzyme dilution and the mixture was allowed to equilibrate for 60 minutes at 25° C. The enzymatic assay was initiated by the addition of 10 μL of substrate mix (500 μM ATP, pH 7.0, 400 μM L-methionine in 1× assay buffer), and the mixture was incubated for a further 60 minutes at 25° C. The reaction was halted and the liberated phosphate released by the enzyme in stoichiometric amounts by the production of S-adenosyl methionine (SAM) was measured using the PiColorLock Gold kit (Innova Biosciences, UK). Absolute product amounts were determined by comparison to a standard curve of potassium phosphate buffer, pH 8.0.

As for `Cc1c2cc(-n3nc4ccc(OCC(F)F)nc4c(-c4ccc(OC(F)F)cc4)c3=O)ccc2nn1C` [Example 166, 6-(2,2-difluoroethoxy)-4-(4-(difluoromethoxy)phenyl)-2-(2,3-dimethyl-2H-indazol-5-yl)pyrido[3,2-c]pyridazin-3(2H)-one], the IC50 in experiment [1] was < 100 nM; in the experiment with HCT116 MTAP+/+, ≥ 1000 nM; in the experiment on HCT116 MTAP−/− it was < 100 nM; at MAT2A homodimer, < 100 nM.
For the compound `CCOc1ccc2nn(-c3ccc4nn(C)cc4c3)c(=O)c(-c3ccc(Br)cc3)c2n1` [Example 198, 4-(4-bromophenyl)-6-ethoxy-2-(2-methyl-2H-indazol-5-yl)pyrido[3,2-c]pyridazin-3(2H)-one], the IC50 is < 100 nM in experiment [1], ≥ 1000 nM in the experiment with HCT116 MTAP+/+, < 100 nM in the experiment on HCT116 MTAP−/− and < 100 nM on MAT2A homodimer.
With `O=c1c(-c2ccc(OC(F)F)cc2)c2nc(OCC(F)F)ccc2nn1-c1ccc2nncn2c1` [Example 184], the IC50 is < 100 nM in experiment [1], ≥ 1000 nM in the experiment on HCT116 MTAP+/+, 100 to 1000 nM in the experiment with HCT116 MTAP−/− and < 100 nM on MAT2A homodimer.
As to `Cn1cc2cc(-n3nc4ccc(OCCF)nc4c(-c4ccc(OC(F)F)cc4)c3=O)ccc2n1` [Example 129], the IC50 in experiment [1] is < 100 nM; with HCT116 MTAP+/+ it was ≥ 1000 nM; in the experiment with HCT116 MTAP−/−, < 100 nM; on MAT2A homodimer, < 100 nM.
As to `CCNc1ccc2nn(-c3ccc4nn(C)cc4c3)c(=O)c(-c3ccc(OC(F)F)nc3)c2n1` [Example 313], the IC50 in experiment [1] is < 100 nM; with HCT116 MTAP+/+ it was 100 to 1000 nM; in the experiment on HCT116 MTAP−/− it was < 100 nM; on MAT2A homodimer, < 100 nM.
Take `Cn1cc2cc(-n3nc4ccc(NCC(F)(F)F)nc4c(-c4ccc(Cl)cc4)c3=O)ccc2n1` [Example 154]: the IC50 in experiment [1] is < 100 nM; in the experiment on HCT116 MTAP+/+, ≥ 1000 nM; in the experiment on HCT116 MTAP−/−, < 100 nM; on MAT2A homodimer, < 100 nM.
As for `CCOc1ccc2nn(-c3ccc4ncccc4c3)c(=O)c(-c3ccc(Cl)cc3)c2n1` [Example 168], the IC50 in experiment [1] is < 100 nM; in the experiment with HCT116 MTAP+/+, ≥ 1000 nM; in the experiment with HCT116 MTAP−/−, 100 to 1000 nM; at MAT2A homodimer it was < 100 nM.
On to `Cn1cc2cc(-n3nc4cc(F)c(OCC(F)F)nc4c(-c4ccc(OC(F)F)cc4)c3=O)ccc2n1` [Example 194, 6-(2,2-difluoroethoxy)-4-(4-(difluoromethoxy)phenyl)-7-fluoro-2-(2-methyl-2H-indazol-5-yl)pyrido[3,2-c]pyridazin-3(2H)-one], for which the IC50 in experiment [1] is 100 to 1000 nM; with HCT116 MTAP+/+, ≥ 1000 nM; in the experiment on HCT116 MTAP−/− it was < 100 nM; at MAT2A homodimer, < 100 nM.
For `O=c1c(-c2ccc(OC(F)F)cc2)c2nc(OCC(F)F)ccc2nn1-c1ccc2nccn2c1` [Example 170], the IC50 is < 100 nM in experiment [1], ≥ 1000 nM with HCT116 MTAP+/+, 100 to 1000 nM in the experiment on HCT116 MTAP−/− and < 100 nM on MAT2A homodimer.
On to `CCCOc1ccc2nn(-c3ccc4nn(C)cc4c3)c(=O)c(-c3ccc(OC(F)F)cc3)c2n1` [Example 111], for which the IC50 in experiment [1] is < 100 nM; with HCT116 MTAP+/+, ≥ 1000 nM; with HCT116 MTAP−/− it was < 100 nM; at MAT2A homodimer, < 100 nM.
Consider `Cn1cc2cc(-n3nc4c(N)cc(OCC(F)F)nc4c(-c4ccc(OC(F)F)cc4)c3=O)ccc2n1` [Example 212, 8-amino-6-(2,2-difluoroethoxy)-4-(4-(difluoromethoxy)phenyl)-2-(2-methyl-2H-indazol-5-yl)pyrido[3,2-c]pyridazin-3(2H)-one], for which the IC50 in experiment [1] was < 100 nM; in the experiment with HCT116 MTAP+/+, 100 to 1000 nM; with HCT116 MTAP−/−, < 100 nM; on MAT2A homodimer, < 100 nM.
As for `Cn1cc2cc(-n3nc4ccc(N5CCCC5)nc4c(-c4ccc(OC(F)F)cc4)c3=O)ccc2n1` [Example 163], the IC50 in experiment [1] is > 1000 nM; in the experiment with HCT116 MTAP+/+, ≥ 1000 nM; in the experiment with HCT116 MTAP−/−, ≥ 1000 nM; on MAT2A homodimer, < 100 nM.
Consider `CCOc1ccc2nn(-c3ccc(OC)cc3)c(=O)c(-c3ccc(OC(F)(F)F)nc3)c2n1` [Example 136], for which the IC50 is 100 to 1000 nM in experiment [1], ≥ 1000 nM with HCT116 MTAP+/+, 100 to 1000 nM in the experiment with HCT116 MTAP−/− and < 100 nM at MAT2A homodimer.
Consider `O=c1c(-c2ccc(OC(F)F)cc2)c2nc(OCC(F)F)ccc2nn1-c1ccc2nccnc2c1` [Example 192], for which the IC50 in experiment [1] is < 100 nM; in the experiment on HCT116 MTAP+/+, 100 to 1000 nM; in the experiment with HCT116 MTAP−/− it was 100 to 1000 nM; at MAT2A homodimer, < 100 nM.
With `CCOc1ccc2nn(-c3ccc(OC)cc3)c(=O)c(-c3ccc(C)nc3)c2n1` [Example 112], the IC50 was 100 to 1000 nM in experiment [1], ≥ 1000 nM in the experiment on HCT116 MTAP+/+, 100 to 1000 nM in the experiment on HCT116 MTAP−/− and < 100 nM on MAT2A homodimer.
On to `Cn1cc2cc(-n3nc4ccc(SCC(F)(F)F)nc4c(-c4ccc(OC(F)F)cc4)c3=O)ccc2n1` [Example 165], for which the IC50 in experiment [1] is < 100 nM; with HCT116 MTAP+/+, 100 to 1000 nM; with HCT116 MTAP−/−, < 100 nM; at MAT2A homodimer, < 100 nM.
With `O=c1c(-c2ccc(OC(F)F)cc2)c2nc(OCC(F)F)ccc2nn1-c1ccc2ncccc2c1` [Example 183], the IC50 in experiment [1] is < 100 nM; in the experiment on HCT116 MTAP+/+, 100 to 1000 nM; in the experiment with HCT116 MTAP−/−, < 100 nM; at MAT2A homodimer it was < 100 nM.
